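Each compound was tested at five concentrations against cells in 96-well plates for 48 hours. Here, GI50 denotes the concentration required for 50% inhibition of growth. TGI marks complete inhibition of growth.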
Legend:
Test in all cases: NCI-60 cell line screen, 48 h
CCRF-CEM leukemia = test system: CCRF-CEM leukemia
HL-60(TB) leukemia = test system: HL-60(TB) leukemia
SF-539 CNS = test system: SF-539 CNS
EKVX NSCLC = test system: EKVX NSCLC
UO-31 renal = test system: UO-31 renal
NCI-H226 lung = test system: NCI-H226 lung
MALME-3M melanoma = test system: MALME-3M melanoma
HT29 colon = test system: HT29 colon
A498 renal = test system: A498 renal
SK-OV-3 ovarian = test system: SK-OV-3 ovarian

SMILES | GI50 (CCRF-CEM leukemia) [µM] | TGI (CCRF-CEM leukemia) [µM] | GI50 (HL-60(TB) leukemia) [µM] | TGI (HL-60(TB) leukemia) [µM] | GI50 (SF-539 CNS) [µM] | TGI (SF-539 CNS) [µM] | GI50 (EKVX NSCLC) [µM] | TGI (EKVX NSCLC) [µM] | GI50 (UO-31 renal) [µM] | TGI (UO-31 renal) [µM] | GI50 (NCI-H226 lung) [µM] | TGI (NCI-H226 lung) [µM] | GI50 (MALME-3M melanoma) [µM] | TGI (MALME-3M melanoma) [µM] | GI50 (HT29 colon) [µM] | TGI (HT29 colon) [µM] | GI50 (A498 renal) [µM] | TGI (A498 renal) [µM] | TGI (SK-OV-3 ovarian) [µM] | GI50 (SK-OV-3 ovarian) [µM]
O=C(Nc1cccc(-n2ccc3c(NC(=O)c4ccccc4)ncnc32)c1)Nc1ccc(Cl)c(C(F)(F)F)c1 | 0.655 | 9.04 | 1.87 | 5.28 | 1.98 | 9.91 | 2.71 | 9.84 | 3.44 | 10.9 | 5.27 | 11.5 | 1.99 | 9.01 | 1.87 | 7.87 | 2.65 | 9.51 | – | –
C[C@]12CC[C@H]3[C@@H](CC=C4C[C@@H](O)CC[C@@]43C)[C@@H]1C/C(=C\c1cccnc1)[C@@H]2O | – | > 100 | – | – | – | 81.6 | – | 35.8 | – | > 100 | – | 57.4 | – | > 100 | – | > 100 | – | 42.9 | 34.2 | –
CN(CCN)[C@H](CSSC[C@@H](c1ccccc1O)N(C)CCN)c1ccccc1O | – | 10.5 | – | – | – | 31.9 | – | 23.9 | – | 23.9 | – | 35.4 | – | 33.3 | – | 21.3 | – | 39.2 | 25 | –
COc1cc2c(c(OC)c1OC)C(=O)c1c(O)cc(C)c(OC)c1C2=O | – | – | – | > 100 | – | > 100 | – | > 100 | – | > 100 | – | > 100 | – | > 100 | – | > 100 | – | > 100 | – | –
Clc1cc(N/N=C(\c2ccccc2)c2ccccn2)ncn1 | – | 1.3 | – | – | – | 3.26 | – | > 100 | – | – | – | 67.3 | – | 3.35 | – | > 100 | – | – | 2 | –
CC(C)=CCC[C@@H](C)C1=C(O)C(N[C@H](C)c2ccccc2)=C(C)C(=O)C1=O | – | – | – | 10.8 | – | 10.2 | – | > 100 | – | 38.9 | – | 21.1 | – | 14.6 | – | 14.1 | – | 32 | 45.4 | –
ClC1=NSSC1(Cl)Cl | – | > 100 | – | 5.25 | – | > 100 | – | > 100 | – | 78 | – | > 100 | – | > 100 | – | > 100 | – | > 100 | – | –
CC1=NN(c2nc(N)nc(CO)n2)C(C)(C)C1 | – | > 100 | – | > 100 | – | > 100 | – | > 100 | – | > 100 | – | > 100 | – | – | – | > 100 | – | > 100 | > 100 | –
CO[C@@]12C[C@H](CNC(=O)c3ccc[nH]3)O[C@@H]1NC(=O)N2 | – | – | – | > 100 | – | > 100 | – | > 100 | – | > 100 | – | > 100 | – | > 100 | – | > 100 | – | > 100 | > 100 | –
CC(=O)Oc1ccc2cc(Oc3cc(Cl)c(Cl)cc3Cl)c(=O)oc2c1 | – | 37.9 | – | 68.8 | – | 31.2 | – | 71.9 | – | 25.9 | – | 36.7 | – | 31.3 | – | 30.5 | – | 46.7 | – | –
O=C(C[N+]12CN3CN(CN(C3)C1)C2)c1ccc(-c2ccccc2)cc1 | – | 5.37 | – | – | – | – | – | 44.9 | – | 61.8 | – | 49.3 | – | 39.3 | – | 48.4 | – | 44.4 | – | –
CCCCCCCCCCCC1N=C(N)N=C(N)N1c1cccc(Br)c1 (stereo not given) | – | – | – | – | – | – | 1.05 | 2.44 | 4.89 | 13 | – | – | 1.77 | 3.38 | 0.412 | 1.71 | 2.65 | 11.3 | 4.28 | 1.92
COC1OC2COC(=O)c3cc(O)c(O)c(O)c3-c3c(cc(O)c(O)c3O)C(=O)OC2C(O)C1O (stereo not given) | – | > 100 | – | – | – | > 100 | – | > 100 | – | > 100 | – | > 100 | – | > 100 | – | > 100 | – | – | > 100 | –
CC(C)c1cc(=O)[nH]c2cc(N)ccc12 | – | > 100 | – | – | – | > 100 | – | > 100 | – | > 100 | – | > 100 | – | – | – | > 100 | – | > 100 | – | –
O=C1NC(N2CCCC(CO)C2)=N/C1=C\c1cccs1 (stereo not given) | – | > 100 | – | > 100 | – | > 100 | – | > 100 | – | > 100 | – | > 100 | – | > 100 | – | > 100 | – | – | > 100 | –
CC1CC(=O)N(N(C)C)C2(C#N)C(=O)N=C(N)C12C#N (stereo not given) | – | 67.5 | – | 51.7 | – | > 100 | – | > 100 | – | > 100 | – | – | – | > 100 | – | > 100 | – | > 100 | > 100 | –
COCN1C(=O)[C@@H]2CCCN2C(=O)c2ccc(N)cc21 | – | > 100 | – | > 100 | – | > 100 | – | > 100 | – | > 100 | – | > 100 | – | – | – | > 100 | – | > 100 | > 100 | –
COC(=O)/C=C(C)/C=C\COC1CCCCO1 (stereo not given) | – | > 100 | – | > 100 | – | – | – | > 100 | – | > 100 | – | > 100 | – | > 100 | – | – | – | > 100 | > 100 | –
CNC(=O)OCc1cnc([N+](=O)[O-])n1C | – | > 100 | – | > 100 | – | > 100 | – | > 100 | – | > 100 | – | > 100 | – | > 100 | – | > 100 | – | > 100 | – | –
Cc1ccc(S(=O)(=O)OC[C@@]2(C)CC[C@]3(C)CC[C@]4(C)C(=C3C2)C=C[C@@H]2[C@@]3(C)CCCNC(C)(C)[C@@H]3CC[C@]24C)cc1 | 2.14 | 6.06 | – | – | 1.71 | 3.11 | 1.7 | 3.29 | 1.46 | 2.85 | – | – | 1.68 | 3.26 | – | – | 1.71 | 3.13 | 3.25 | 1.79
CCOC(=O)C(O)(CC1=NC(C(=O)OC)(C(=O)OC)C(c2cccc(C=O)c2)O1)C(=O)OCC (stereo not given) | – | > 100 | – | > 100 | – | – | – | > 100 | – | > 100 | – | > 100 | – | – | – | > 100 | – | > 100 | > 100 | –
O=C(/C=C/c1ccc(OCc2ccccc2)cc1)NCc1ccc(C(=O)NCCc2ccccc2)cc1 | – | > 100 | – | – | – | > 100 | – | > 100 | – | > 100 | – | > 100 | – | > 100 | – | > 100 | – | > 100 | > 100 | –
